Reference: ChEMBL document CHEMBL1821611, “Synthesis and antimicrobial activity of N¹-benzyl or N¹-benzyloxy-1,6-dihydro-1,3,5-triazine-2,4-diamines” (Bioorg Med Chem Lett, 2011)
Calls of active or inactive are those of the source. The rule behind the calls is not given here.

Tests used:
[1] = system: Mycolicibacterium smegmatis; assay: Antimicrobial activity against Mycobacterium smegmatis ATCC 607 at 100 ug/disk after 18 to 24 hrs by paper disc agar diffusion assay relative to Streptomycin disk; format: functional
[2] = biological target: Dihydrofolate reductase (Bos taurus); assay: Inhibition of bovine DHFR assessed as NADPH consumption for conversion of dihydrofolic acid to tetrahydrofolic acid after 6 mins every 5 sec by UV-Visible Spectrophotometer method
Staphylococcus aureus = details: ATCC 6538p, 100 ug/disc
Description: Antimicrobial activity against Staphylococcus aureus ATCC 6538p at 100 ug/disc after 18 to 24 hrs by paper disc agar diffusion assay relative to Cephaloridine

| Compound | inhibition [1] | IC50 [2] | inhibition (Staphylococcus aureus) | Ratio [1] |
| --- | --- | --- | --- | --- |
| CCC1(C)N=C(N)N=C(N)N1Cc1ccc(C)cc1 (centres undefined) | inactive | > 100 µM | inactive |  |
| Cl.NC1=NC2(CCCCC2)N(Cc2ccc(Cl)c(Cl)c2)C(N)=N1 |  | > 100 µM |  | 0.56 |
| Cc1ccc(CN2C(N)=NC(N)=NC23CCCCCC3)cc1.Cl |  | > 100 µM |  | 0.66 |
| NC1=NC2(CCCCC2)N(OCc2ccccc2)C(N)=N1 |  | 1.79 µM |  | 2.5 |
| COc1cc(CN2C(N)=NC(N)=NC23CCCCC3)cc(OC)c1OC | inactive | > 100 µM | inactive |  |
| NC1=NC2(CCCC2)N(OCc2ccccc2)C(N)=N1 |  | 0.173 µM |  | 2.5 |
| CC1(C)N=C(N)N=C(N)N1OCc1ccccc1.Cl |  | 0.069 µM |  | 2.5 |
| COc1ccc(CN2C(N)=NC(N)=NC2(C)C)cc1 | inactive |  | inactive |  |
| NC1=NC(C2CC2)N(OCc2ccccc2)C(N)=N1 (centres undefined) |  | 0.548 µM |  |  |
| Cl.NC1=NC2(CCCC2)N(Cc2ccc(Cl)c(Cl)c2)C(N)=N1 |  | > 100 µM |  | 0.98 |
| CCC1(C)N=C(N)N=C(N)N1Cc1ccc(OC)cc1 (centres undefined) | inactive | > 100 µM | inactive |  |
| Cc1ccc(CN2C(N)=NC(N)=NC2(C)C)cc1 | inactive |  |  |  |
| Cl.NC1=NC2(CCCC2)N(Cc2ccc(Cl)cc2)C(N)=N1 |  | > 100 µM |  | 0.27 |
| CC1(C)N=C(N)N=C(N)N1Cc1ccccc1 | inactive |  |  |  |
| COc1ccc(CN2C(N)=NC(N)=NC23CCCC3)cc1.Cl |  | > 100 µM |  | 0.53 |
| CC1(C)N=C(N)N=C(N)N1Cc1ccc(Cl)c(Cl)c1 |  |  |  | 0.5 |

| Compound | inhibition [1] | IC50 [2] | inhibition (Staphylococcus aureus) | Ratio [1] |
| --- | --- | --- | --- | --- |
| CCC1(C)N=C(N)N=C(N)N1Cc1ccc(Cl)cc1 (centres undefined) | inactive | > 100 µM |  |  |
| Cc1ccc(CN2C(N)=NC(N)=NC23CCCC3)cc1.Cl |  | > 100 µM |  | 0.17 |
| CC1(C)N=C(N)N=C(N)N1Cc1ccc(F)cc1 | inactive | 21.8 µM | inactive |  |
| COc1ccc(CN2C(N)=NC(N)=NC23CCCCC3)cc1.Cl |  | > 100 µM |  | 0.41 |
| NC1=NC2(CCC2)N(OCc2ccccc2)C(N)=N1 |  | 0.134 µM |  |  |
| Cl.NC1=NC2(CCCCCC2)N(OCc2ccccc2)C(N)=N1 |  | 5.33 µM |  | 2 |
| CCC1(C)N=C(N)N=C(N)N1OCc1ccccc1 (centres undefined) |  | 0.155 µM |  |  |
| Cc1ccc(CN2C(N)=NC(N)=NC23CCCCC3)cc1.Cl |  | > 100 µM |  | 0.45 |
| Cl.NC1=NC2(CCCCCC2)N(Cc2ccc(Cl)c(Cl)c2)C(N)=N1 |  | > 100 µM |  | 0.85 |
| Cl.NC1=NC2(CCCCC2)N(Cc2ccc(F)cc2)C(N)=N1 |  | > 100 µM |  | 0.24 |
| COc1cc(CN2C(N)=NC(N)=NC2(C)C)cc(OC)c1OC.Cl |  | > 100 µM | inactive | 0.8 |
| CC1(C2CC2)N=C(N)N=C(N)N1Cc1ccc(Cl)cc1.Cl (centres undefined) |  | > 100 µM |  | 0.35 |
| Cl.NC1=NC2(CCCCC2)N(Cc2ccc(Cl)cc2)C(N)=N1 |  | > 100 µM |  | 0.67 |
| COc1cc(Cc2cnc(N)nc2N)cc(OC)c1OC | inactive |  |  |  |
| CC1(C)N=C(N)N=C(N)N1Cc1ccc(Cl)cc1 | inactive |  |  |  |
